These results are taken from PubChem BioAssay (NCI).

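Protocol summary: plate cells (96-well), add compound at 5 concentrations, incubate 48 h, interpolate endpoints linearly. At the GI50, growth is halved. TGI marks complete inhibition of growth.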

One experiment has as its system UO-31 renal. Description: DTP human tumour cell line panel, 48 h.
By GI50 is commonly meant the concentration giving 50% growth inhibition. A word on the TGI: it is the concentration giving total growth inhibition. Low values mean greater sensitivity of the cells, high ones lower sensitivity of the cells. In the case of `CN(C(=O)c1ccc(C(F)(F)F)cc1)c1ccc(Oc2ccc3c(c2)cc(C(=O)N2CCN(Cc4ccc(OC(F)F)cc4)CC2)n3C)nc1`, the GI50 was 4.22 µM and the total growth inhibition concentration (TGI) was more than 100 µM.
`Cc1cc(-c2ccc3nc(C4CCOCC4)n(CCOC(F)(F)F)c3c2)cn(C)c1=O` displayed a TGI of more than 20.7 µM.
Take `Nc1ncnc2c1nnn2C1OC(CO)C(O)C1O` (stereo unspecified): the TGI was 6.02 µM.
For `COc1cc(/C=C2\CN(S(=O)(=O)c3ccccc3)C/C(=C\c3cc(CN4CCCC4)c(O)c(OC)c3)C2=O)cc(CN2CCCC2)c1O`, the GI50 was 1.92 µM and the TGI is 5.31 µM.
Taken in the same sequence, the figures for `CN1CCN(CCCn2c(=O)c3sc4ncccc4c3n3nnc(-c4ccccc4)c23)CC1` were 5.1 µM and 12 µM.
As for `CC(=O)OC1COC(n2ccc3cc(Br)c([N+](=O)[O-])cc32)C(OC(C)=O)C1OC(C)=O` (stereo unspecified), the total growth inhibition concentration (TGI) is 42.8 µM.
Molecule `NC1(C(=O)OCc2ccccc2)CCCC1` came in with a TGI of 43.3 µM.
For the molecule `O=C(/C=C/c1ccc(Cl)cc1)c1ccc(Nc2ccnc3cc(Cl)ccc23)cc1`, the GI50 is more than 74.7 µM and the TGI was more than 100 µM.
Regarding `COc1cc(C2c3cc4c(cc3OC(C)(O)C2C)OCO4)cc(OC)c1OC` (stereo unspecified), the concentration for total growth inhibition (TGI) came to 81.5 µM.
For the molecule `Cn1cnc([N+](=O)[O-])c1Sc1nc2ccccc2[nH]1`, the TGI worked out at 51.9 µM.
The molecule `COc1cc2c(c(OC)c1OC)-c1ccc(OC)c(=O)cc1C(NC(=O)c1ccc(N=[N+]=[N-])cc1)CC2` (stereo unspecified) displayed a TGI of more than 95.7 µM.
`CCCCCCCCC/C=C1\CCC(CN2CCOCC2)C1=O` (stereo unspecified) showed a total growth inhibition concentration (TGI) of 14.9 µM.
Same read-out and setting: the value for `CCCCCCN(CCCCCC)C(=O)Cc1c2n(c3ccccc13)Cc1ccccc1-2` was more than 100 µM.
Take `CC(=O)[C@@]12O[C@@H]1CC1C3CCC4=CC(O)CCC4(C)C3CCC12C` (stereo partly specified): the GI50 is more than 100 µM and the total growth inhibition concentration (TGI) is more than 100 µM.
Molecule `C/C(=N\NC(=S)NC(CCC(=O)O)C(=O)O)c1ccccn1` (stereo unspecified) had a total growth inhibition concentration (TGI) of more than 100 µM.
`Brc1ccccc1C1SCc2nc3ccccc3n21` (stereo unspecified) returned a TGI of 22.6 µM.
Consider `C=C(Br)C(C)(Br)CCC(Br)C(C)(C)Cl` (stereo unspecified), for which the TGI turned out to be 32 µM.
Take `CCc1cc(Cc2cc(CC)c(NC(=O)C(=O)Cc3ccccn3)c(CC)c2Cl)c(Cl)c(CC)c1NC(=O)C(=O)Cc1ccccn1`: the TGI was more than 100 µM.
The same measure, in the same setting: the value for `CC(C)OP(=O)(OC(C)C)C(=NCCN=C(NNc1ccc([N+](=O)[O-])cc1)P(=O)(OC(C)C)OC(C)C)NNc1ccc([N+](=O)[O-])cc1` was more than 100 µM; that for `C#CC1(O)CCC2C3CCc4cc(Oc5nc(F)nc(-c6c7ccccc7c7sc8ccccc8n67)n5)ccc4C3CC[C@@]21C` (stereo partly specified) was more than 100 µM; that for `Clc1ccc(C(c2ccc(Cl)cc2)c2ccccn2)cc1` was 30.5 µM.
The molecule `CC(C)(C)OC(=O)N[C@H]1CC2(C=C(Cl)C(=O)C(Cl)=C2)OC1=O` showed a TGI of 38.8 µM.

In a further experiment the test system is HT29 colon. Put plainly: DTP human tumour cell line panel, 48 h.
As to `CN(C(=O)c1ccc(C(F)(F)F)cc1)c1ccc(Oc2ccc3c(c2)cc(C(=O)N2CCN(Cc4ccc(OC(F)F)cc4)CC2)n3C)nc1`, the GI50 was 33.2 µM and the TGI is more than 100 µM.
`Cc1cc(-c2ccc3nc(C4CCOCC4)n(CCOC(F)(F)F)c3c2)cn(C)c1=O` gave a TGI of more than 63.1 µM.
For `Nc1ncnc2c1nnn2C1OC(CO)C(O)C1O` (stereo unspecified), the TGI was 21.9 µM. That is a double-digit micromolar value.
For the molecule `COc1cc(/C=C2\CN(S(=O)(=O)c3ccccc3)C/C(=C\c3cc(CN4CCCC4)c(O)c(OC)c3)C2=O)cc(CN2CCCC2)c1O`, the GI50 is 0.252 µM and the total growth inhibition concentration (TGI) came to 1.65 µM.
As to `CN1CCN(CCCn2c(=O)c3sc4ncccc4c3n3nnc(-c4ccccc4)c23)CC1`, the GI50 is 2.89 µM and the concentration for total growth inhibition (TGI) came to 9.54 µM.
With `CC(=O)OC1COC(n2ccc3cc(Br)c([N+](=O)[O-])cc32)C(OC(C)=O)C1OC(C)=O` (stereo unspecified), the TGI was more than 100 µM.
Consider `NC1(C(=O)OCc2ccccc2)CCCC1`, for which the TGI was more than 100 µM.
With `O=C(/C=C/c1ccc(Cl)cc1)c1ccc(Nc2ccnc3cc(Cl)ccc23)cc1`, the GI50 is 1.07 µM and the concentration for total growth inhibition (TGI) was more than 100 µM.
With `COc1cc(C2c3cc4c(cc3OC(C)(O)C2C)OCO4)cc(OC)c1OC` (stereo unspecified), the total growth inhibition concentration (TGI) was more than 100 µM.
On the same count and under the same terms, for `Cn1cnc([N+](=O)[O-])c1Sc1nc2ccccc2[nH]1` the value was more than 100 µM.
Molecule `N#CC(C#N)=CNC(N)=S` gave a TGI of more than 100 µM.
The molecule `COc1cc2c(c(OC)c1OC)-c1ccc(OC)c(=O)cc1C(NC(=O)c1ccc(N=[N+]=[N-])cc1)CC2` (stereo unspecified) registered a concentration for total growth inhibition (TGI) of 0.208 µM.
In turn, `CCCCCCCCC/C=C1\CCC(CN2CCOCC2)C1=O` (stereo unspecified) returned a TGI of 8.7 µM.
Molecule `CCCCCCN(CCCCCC)C(=O)Cc1c2n(c3ccccc13)Cc1ccccc1-2` returned a total growth inhibition concentration (TGI) of more than 100 µM.
Take `CC(=O)[C@@]12O[C@@H]1CC1C3CCC4=CC(O)CCC4(C)C3CCC12C` (stereo partly specified): the GI50 is 47.9 µM and the TGI was more than 100 µM.
Molecule `C/C(=N\NC(=S)NC(CCC(=O)O)C(=O)O)c1ccccn1` (stereo unspecified) displayed a TGI of more than 100 µM.
The same measure, in the same setting: for `Brc1ccccc1C1SCc2nc3ccccc3n21` (stereo unspecified) the value was 60.9 µM; for `C=C(Br)C(C)(Br)CCC(Br)C(C)(C)Cl` (stereo unspecified), 40.7 µM.
`CCc1cc(Cc2cc(CC)c(NC(=O)C(=O)Cc3ccccn3)c(CC)c2Cl)c(Cl)c(CC)c1NC(=O)C(=O)Cc1ccccn1` registered a total growth inhibition concentration (TGI) of more than 100 µM.
The same measure, in the same setting: the value for `C#CC1(O)CCC2C3CCc4cc(Oc5nc(F)nc(-c6c7ccccc7c7sc8ccccc8n67)n5)ccc4C3CC[C@@]21C` (stereo partly specified) was more than 100 µM.
`Clc1ccc(C(c2ccc(Cl)cc2)c2ccccn2)cc1` came in with a concentration for total growth inhibition (TGI) of 30.8 µM.
In turn, `CC(C)(C)OC(=O)N[C@H]1CC2(C=C(Cl)C(=O)C(Cl)=C2)OC1=O` had a TGI of 27.9 µM.
On the same count and under the same terms, the value for `O=c1cc(-c2ccccc2)oc2cc(OCCCOc3ccc4c(=O)cc(-c5ccccc5)oc4c3)ccc12` was more than 100 µM.

The next experiment has as its system U251 CNS. Put plainly: DTP human tumour cell line panel, 48 h.
On to `CN(C(=O)c1ccc(C(F)(F)F)cc1)c1ccc(Oc2ccc3c(c2)cc(C(=O)N2CCN(Cc4ccc(OC(F)F)cc4)CC2)n3C)nc1`, for which the GI50 is 6 µM and the TGI is more than 100 µM.
Turning to `Cc1cc(-c2ccc3nc(C4CCOCC4)n(CCOC(F)(F)F)c3c2)cn(C)c1=O`, the GI50 was 1.02 µM.
For the molecule `Nc1ncnc2c1nnn2C1OC(CO)C(O)C1O` (stereo unspecified), the TGI stood at 37.8 µM. This counts as double-digit micromolar.
For `CN1CCN(CCCn2c(=O)c3sc4ncccc4c3n3nnc(-c4ccccc4)c23)CC1`, the GI50 was 5.21 µM and the TGI amounted to 11.2 µM.
`CC(=O)OC1COC(n2ccc3cc(Br)c([N+](=O)[O-])cc32)C(OC(C)=O)C1OC(C)=O` (stereo unspecified) registered a TGI of 56 µM. This counts as double-digit micromolar.
Take `NC1(C(=O)OCc2ccccc2)CCCC1`: the TGI worked out at 40.3 µM. This TGI and that of the molecule before are within 1.5-fold of each other.
In the case of `O=C(/C=C/c1ccc(Cl)cc1)c1ccc(Nc2ccnc3cc(Cl)ccc23)cc1`, the GI50 is 28.8 µM and the total growth inhibition concentration (TGI) was more than 100 µM.
`COc1cc(C2c3cc4c(cc3OC(C)(O)C2C)OCO4)cc(OC)c1OC` (stereo unspecified) displayed a total growth inhibition concentration (TGI) of more than 100 µM.
